Type in all cases: functional
Assay [1] addresses Mitogen-activated protein kinase 9 (Homo sapiens, UniProt P45984).
The target in assay [2] is Insulin-like growth factor 1 receptor (Homo sapiens, UniProt P08069). As to the kind of experiment: Navigating the Kinome. Panel member name: IGF1R.
Assay [3] addresses Vascular endothelial growth factor receptor 2 (Homo sapiens, UniProt P35968).
For assay [4], the target named is Fibroblast growth factor receptor 1 (Homo sapiens, UniProt P11362).
The target in assay [5] is Macrophage colony-stimulating factor 1 receptor (Homo sapiens, UniProt P07333).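 Note: value comes from the Navigating the Kinome screening panel, CSF1R member.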
The target of assay [6] is Hepatocyte growth factor receptor (Homo sapiens, UniProt P08581).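 Note: kinase panel profiling across the kinome, with MET as the panel member.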
Assay [7] deals with Serine/threonine-protein kinase TBK1 (Homo sapiens, UniProt Q9UHD2). As to the kind of experiment: Navigating the Kinome. Panel member name: TBK1.
Assay [8] deals with Mitogen-activated protein kinase kinase kinase kinase 2 (Homo sapiens, UniProt Q12851).
Sequence of Mitogen-activated protein kinase kinase kinase kinase 2 (Q12851 whole entry): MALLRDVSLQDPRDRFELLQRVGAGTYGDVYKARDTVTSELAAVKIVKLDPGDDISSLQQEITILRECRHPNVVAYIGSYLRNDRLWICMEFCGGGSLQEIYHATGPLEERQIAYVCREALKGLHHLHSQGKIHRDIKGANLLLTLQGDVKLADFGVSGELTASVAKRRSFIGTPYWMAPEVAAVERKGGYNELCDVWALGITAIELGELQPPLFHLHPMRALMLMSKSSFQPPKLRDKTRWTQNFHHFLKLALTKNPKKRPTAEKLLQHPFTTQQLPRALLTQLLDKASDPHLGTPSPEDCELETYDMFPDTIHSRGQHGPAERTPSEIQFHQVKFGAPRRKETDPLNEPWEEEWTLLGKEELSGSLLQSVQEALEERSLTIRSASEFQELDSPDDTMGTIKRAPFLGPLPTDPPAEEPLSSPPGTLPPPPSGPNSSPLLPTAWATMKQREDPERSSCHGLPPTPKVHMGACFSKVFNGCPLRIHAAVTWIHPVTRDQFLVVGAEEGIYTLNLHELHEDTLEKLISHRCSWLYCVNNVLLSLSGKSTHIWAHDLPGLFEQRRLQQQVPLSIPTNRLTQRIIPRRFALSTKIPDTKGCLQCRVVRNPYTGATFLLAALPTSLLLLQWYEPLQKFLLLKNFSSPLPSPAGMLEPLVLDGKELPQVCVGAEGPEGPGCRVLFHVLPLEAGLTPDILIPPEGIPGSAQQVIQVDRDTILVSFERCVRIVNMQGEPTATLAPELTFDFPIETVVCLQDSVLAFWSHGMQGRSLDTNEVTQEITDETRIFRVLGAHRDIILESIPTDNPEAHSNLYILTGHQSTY
Assay [9] addresses Receptor-type tyrosine-protein kinase FLT3 (Homo sapiens, UniProt P36888).
Assay [10] addresses Cyclin-dependent kinase 7 (Homo sapiens, UniProt P50613).
Assay [11] deals with Mitogen-activated protein kinase kinase kinase kinase 5 (Homo sapiens, UniProt Q9Y4K4).
Sequence of Mitogen-activated protein kinase kinase kinase kinase 5 (Q9Y4K4 whole entry): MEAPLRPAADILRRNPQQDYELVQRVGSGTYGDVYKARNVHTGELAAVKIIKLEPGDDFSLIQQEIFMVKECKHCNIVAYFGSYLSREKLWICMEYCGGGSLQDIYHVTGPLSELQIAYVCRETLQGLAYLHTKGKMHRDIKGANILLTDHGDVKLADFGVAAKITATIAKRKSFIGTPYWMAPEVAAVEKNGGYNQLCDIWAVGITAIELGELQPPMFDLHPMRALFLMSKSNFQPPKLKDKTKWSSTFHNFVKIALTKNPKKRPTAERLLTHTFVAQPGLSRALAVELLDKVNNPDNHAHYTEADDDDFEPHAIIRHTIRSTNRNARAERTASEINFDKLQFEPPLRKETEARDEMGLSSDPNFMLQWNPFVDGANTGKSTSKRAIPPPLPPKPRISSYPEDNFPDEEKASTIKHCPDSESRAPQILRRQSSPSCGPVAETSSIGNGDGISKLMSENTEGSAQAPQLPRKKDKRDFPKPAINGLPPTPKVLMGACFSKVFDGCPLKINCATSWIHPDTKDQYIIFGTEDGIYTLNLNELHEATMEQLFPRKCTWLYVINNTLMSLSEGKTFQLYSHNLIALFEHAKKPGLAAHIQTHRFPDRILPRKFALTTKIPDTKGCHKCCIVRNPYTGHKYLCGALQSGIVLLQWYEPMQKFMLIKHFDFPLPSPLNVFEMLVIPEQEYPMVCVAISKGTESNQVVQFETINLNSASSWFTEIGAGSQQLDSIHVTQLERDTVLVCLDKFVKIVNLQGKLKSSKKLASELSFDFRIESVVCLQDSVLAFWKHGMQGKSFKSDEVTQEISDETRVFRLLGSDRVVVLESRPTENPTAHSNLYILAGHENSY
The target in assay [12] is Cell division cycle 7-related protein kinase (Homo sapiens, UniProt O00311).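 Note: value obtained from a kinome-wide kinase panel.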
Sequence of Cell division cycle 7-related protein kinase (O00311 whole entry): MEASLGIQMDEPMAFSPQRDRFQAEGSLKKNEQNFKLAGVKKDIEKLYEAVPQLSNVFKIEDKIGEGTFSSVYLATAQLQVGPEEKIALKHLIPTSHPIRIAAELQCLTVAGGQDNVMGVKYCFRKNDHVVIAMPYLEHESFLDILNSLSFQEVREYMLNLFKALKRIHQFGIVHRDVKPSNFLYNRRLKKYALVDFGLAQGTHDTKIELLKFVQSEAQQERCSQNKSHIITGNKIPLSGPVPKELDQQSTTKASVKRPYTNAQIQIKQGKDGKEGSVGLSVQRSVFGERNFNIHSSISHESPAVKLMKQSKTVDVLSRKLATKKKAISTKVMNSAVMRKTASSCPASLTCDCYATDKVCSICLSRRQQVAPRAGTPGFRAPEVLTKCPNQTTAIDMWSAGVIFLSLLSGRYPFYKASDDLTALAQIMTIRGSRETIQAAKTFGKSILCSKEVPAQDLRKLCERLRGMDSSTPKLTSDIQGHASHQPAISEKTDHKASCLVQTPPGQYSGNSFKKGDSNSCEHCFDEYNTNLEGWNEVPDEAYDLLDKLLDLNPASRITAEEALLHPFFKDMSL
Assay [13] addresses Mitogen-activated protein kinase 14 (Homo sapiens, UniProt Q16539).
The target in assay [14] is T1, Serine/threonine-protein kinase TAO1 (Homo sapiens, UniProt Q7L7X3).
T1 sequence (Q7L7X3 whole entry): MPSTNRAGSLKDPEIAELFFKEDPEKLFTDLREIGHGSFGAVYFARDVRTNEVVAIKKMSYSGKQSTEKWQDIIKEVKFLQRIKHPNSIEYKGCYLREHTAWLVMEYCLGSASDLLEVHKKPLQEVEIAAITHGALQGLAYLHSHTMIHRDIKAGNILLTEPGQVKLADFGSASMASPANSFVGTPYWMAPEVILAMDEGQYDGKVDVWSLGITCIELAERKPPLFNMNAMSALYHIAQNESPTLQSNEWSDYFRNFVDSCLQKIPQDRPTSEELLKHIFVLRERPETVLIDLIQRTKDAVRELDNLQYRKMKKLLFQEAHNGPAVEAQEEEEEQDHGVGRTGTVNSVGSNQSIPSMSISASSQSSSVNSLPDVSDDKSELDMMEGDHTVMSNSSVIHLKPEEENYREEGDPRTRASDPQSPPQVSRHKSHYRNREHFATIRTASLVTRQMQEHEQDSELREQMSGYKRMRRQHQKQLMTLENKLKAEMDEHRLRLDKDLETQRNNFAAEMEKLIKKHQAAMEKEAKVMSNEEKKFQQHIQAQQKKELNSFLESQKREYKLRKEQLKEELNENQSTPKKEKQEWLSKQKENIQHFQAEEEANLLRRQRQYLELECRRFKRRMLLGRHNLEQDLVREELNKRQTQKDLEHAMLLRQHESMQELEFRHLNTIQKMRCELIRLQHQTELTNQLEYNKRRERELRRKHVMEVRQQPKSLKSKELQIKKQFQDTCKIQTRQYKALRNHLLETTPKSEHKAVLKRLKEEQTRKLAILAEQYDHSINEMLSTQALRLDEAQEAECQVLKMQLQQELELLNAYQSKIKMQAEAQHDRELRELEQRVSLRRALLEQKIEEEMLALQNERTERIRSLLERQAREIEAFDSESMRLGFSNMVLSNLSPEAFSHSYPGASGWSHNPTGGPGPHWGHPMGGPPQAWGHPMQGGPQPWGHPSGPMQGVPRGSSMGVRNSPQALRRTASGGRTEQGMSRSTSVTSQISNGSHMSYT

Assay [15] has as its target Glycogen synthase kinase-3 beta (Homo sapiens, UniProt P49841).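 Note: value comes from a broad kinome profiling panel, with GSK3B as the panel member.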
In assay [16] the target is Calcium/calmodulin-dependent protein kinase type II subunit alpha (Homo sapiens, UniProt Q9UQM7). Put plainly: Navigating the Kinome. Panel member name: CAMK2A.
Sequence of Calcium/calmodulin-dependent protein kinase type II subunit alpha (Q9UQM7 whole entry): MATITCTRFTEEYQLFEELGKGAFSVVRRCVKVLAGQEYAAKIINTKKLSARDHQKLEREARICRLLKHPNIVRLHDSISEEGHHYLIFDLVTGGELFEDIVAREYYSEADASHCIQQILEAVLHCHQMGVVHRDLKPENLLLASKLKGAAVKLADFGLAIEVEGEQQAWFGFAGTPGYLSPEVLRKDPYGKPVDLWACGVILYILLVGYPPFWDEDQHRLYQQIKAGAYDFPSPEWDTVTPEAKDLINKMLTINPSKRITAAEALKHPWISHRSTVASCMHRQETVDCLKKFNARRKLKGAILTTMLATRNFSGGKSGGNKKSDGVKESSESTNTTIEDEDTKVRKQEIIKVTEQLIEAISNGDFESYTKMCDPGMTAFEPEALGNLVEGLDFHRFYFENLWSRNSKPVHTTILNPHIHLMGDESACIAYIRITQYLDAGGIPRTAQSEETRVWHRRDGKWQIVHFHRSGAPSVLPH
The target of assay [17] is Dual specificity mitogen-activated protein kinase kinase 1 (Homo sapiens, UniProt Q02750). As to the kind of experiment: Navigating the Kinome. Panel member name: MAP2K1.
The target in assay [18] is Calcium/calmodulin-dependent protein kinase type II subunit delta (Homo sapiens, UniProt Q13557).
Assay [19] addresses Dual specificity tyrosine-phosphorylation-regulated kinase 1B (Homo sapiens, UniProt Q9Y463). As to the kind of experiment: Navigating the Kinome. Panel member name: DYRK1B.
Assay [20] deals with Serine/threonine-protein kinase 3 (Homo sapiens, UniProt Q13188).
For assay [21], the target named is Leucine-rich repeat serine/threonine-protein kinase 2 (Homo sapiens, UniProt Q5S007).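 Note: value from a broad kinome-wide panel profiling study in which LRRK2 was one of the kinases tested.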
The target in assay [22] is Mitogen-activated protein kinase kinase kinase kinase 4 (Homo sapiens, UniProt O95819).
For assay [23], the target named is T2, Serine/threonine-protein kinase Chk1 (Homo sapiens, UniProt O14757).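 Note: measured as one member of a kinome-wide kinase profiling panel.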
T2 sequence (O14757 whole entry): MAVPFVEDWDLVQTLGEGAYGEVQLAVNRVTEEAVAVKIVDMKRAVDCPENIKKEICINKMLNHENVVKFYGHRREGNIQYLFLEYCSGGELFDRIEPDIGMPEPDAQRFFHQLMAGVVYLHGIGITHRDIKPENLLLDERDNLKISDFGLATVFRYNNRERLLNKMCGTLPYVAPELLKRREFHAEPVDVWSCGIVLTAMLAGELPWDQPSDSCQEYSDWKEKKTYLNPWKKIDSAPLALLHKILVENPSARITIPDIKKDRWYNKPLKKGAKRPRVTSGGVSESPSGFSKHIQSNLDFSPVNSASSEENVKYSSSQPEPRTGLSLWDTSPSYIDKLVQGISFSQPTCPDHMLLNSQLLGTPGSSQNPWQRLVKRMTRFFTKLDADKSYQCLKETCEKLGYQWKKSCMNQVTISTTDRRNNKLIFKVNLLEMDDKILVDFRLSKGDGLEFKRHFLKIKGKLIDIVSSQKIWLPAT

The target in assay [24] is Protein kinase C theta type (Homo sapiens, UniProt Q04759). Put plainly: Navigating the Kinome. Panel member name: PRKCQ.
Sequence of Protein kinase C theta type (Q04759 whole entry): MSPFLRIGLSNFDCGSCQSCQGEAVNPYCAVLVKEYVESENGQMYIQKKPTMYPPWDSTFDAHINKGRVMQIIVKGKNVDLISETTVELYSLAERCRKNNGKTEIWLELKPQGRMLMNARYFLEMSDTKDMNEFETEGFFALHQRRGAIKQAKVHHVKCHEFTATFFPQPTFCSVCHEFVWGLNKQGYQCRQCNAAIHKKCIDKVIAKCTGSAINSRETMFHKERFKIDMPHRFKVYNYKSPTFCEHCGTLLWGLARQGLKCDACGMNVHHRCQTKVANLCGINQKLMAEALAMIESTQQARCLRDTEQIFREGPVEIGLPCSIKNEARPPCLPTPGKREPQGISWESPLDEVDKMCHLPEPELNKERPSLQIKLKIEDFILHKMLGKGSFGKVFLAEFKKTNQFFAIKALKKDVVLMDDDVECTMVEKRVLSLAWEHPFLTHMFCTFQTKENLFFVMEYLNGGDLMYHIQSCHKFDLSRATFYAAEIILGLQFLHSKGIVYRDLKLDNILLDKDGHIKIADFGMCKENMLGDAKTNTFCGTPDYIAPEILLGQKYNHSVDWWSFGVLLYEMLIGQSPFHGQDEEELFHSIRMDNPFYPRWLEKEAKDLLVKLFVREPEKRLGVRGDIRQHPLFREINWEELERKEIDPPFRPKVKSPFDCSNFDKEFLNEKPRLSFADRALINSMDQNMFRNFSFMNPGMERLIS
A further assay deals with Focal adhesion kinase 1 (Homo sapiens, UniProt Q05397).
Assay [25] has as its target Dual specificity mitogen-activated protein kinase kinase 2 (Homo sapiens, UniProt P36507). Put plainly: Navigating the Kinome. Panel member name: MAP2K2.

SMILES strings stand for the structures. Activity calls are given as the source filed them.

The source of these data is ChEMBL document CHEMBL1201862, “PubChem BioAssay data set” (2004).

A word on the Ki: it is a dissociation constant, usually derived from enzyme kinetics or from competition with a known ligand.

Sequence of Dual specificity tyrosine-phosphorylation-regulated kinase 1B (Q9Y463 whole entry): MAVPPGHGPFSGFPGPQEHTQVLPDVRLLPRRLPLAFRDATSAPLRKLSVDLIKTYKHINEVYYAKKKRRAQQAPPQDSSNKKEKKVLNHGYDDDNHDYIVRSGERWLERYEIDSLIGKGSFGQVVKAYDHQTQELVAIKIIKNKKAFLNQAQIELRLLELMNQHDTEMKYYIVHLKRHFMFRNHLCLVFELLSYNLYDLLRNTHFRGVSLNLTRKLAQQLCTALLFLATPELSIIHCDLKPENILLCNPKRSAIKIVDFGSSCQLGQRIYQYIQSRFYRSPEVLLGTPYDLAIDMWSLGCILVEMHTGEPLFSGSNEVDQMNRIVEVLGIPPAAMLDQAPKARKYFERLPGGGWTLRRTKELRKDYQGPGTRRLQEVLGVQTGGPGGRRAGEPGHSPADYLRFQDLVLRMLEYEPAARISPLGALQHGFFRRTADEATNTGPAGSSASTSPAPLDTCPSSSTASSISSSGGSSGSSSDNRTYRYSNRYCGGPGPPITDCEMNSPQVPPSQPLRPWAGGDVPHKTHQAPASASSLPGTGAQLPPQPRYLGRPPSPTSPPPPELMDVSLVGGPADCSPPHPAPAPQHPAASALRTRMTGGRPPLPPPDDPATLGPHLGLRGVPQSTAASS
Sequence of Receptor-type tyrosine-protein kinase FLT3 (P36888 whole entry): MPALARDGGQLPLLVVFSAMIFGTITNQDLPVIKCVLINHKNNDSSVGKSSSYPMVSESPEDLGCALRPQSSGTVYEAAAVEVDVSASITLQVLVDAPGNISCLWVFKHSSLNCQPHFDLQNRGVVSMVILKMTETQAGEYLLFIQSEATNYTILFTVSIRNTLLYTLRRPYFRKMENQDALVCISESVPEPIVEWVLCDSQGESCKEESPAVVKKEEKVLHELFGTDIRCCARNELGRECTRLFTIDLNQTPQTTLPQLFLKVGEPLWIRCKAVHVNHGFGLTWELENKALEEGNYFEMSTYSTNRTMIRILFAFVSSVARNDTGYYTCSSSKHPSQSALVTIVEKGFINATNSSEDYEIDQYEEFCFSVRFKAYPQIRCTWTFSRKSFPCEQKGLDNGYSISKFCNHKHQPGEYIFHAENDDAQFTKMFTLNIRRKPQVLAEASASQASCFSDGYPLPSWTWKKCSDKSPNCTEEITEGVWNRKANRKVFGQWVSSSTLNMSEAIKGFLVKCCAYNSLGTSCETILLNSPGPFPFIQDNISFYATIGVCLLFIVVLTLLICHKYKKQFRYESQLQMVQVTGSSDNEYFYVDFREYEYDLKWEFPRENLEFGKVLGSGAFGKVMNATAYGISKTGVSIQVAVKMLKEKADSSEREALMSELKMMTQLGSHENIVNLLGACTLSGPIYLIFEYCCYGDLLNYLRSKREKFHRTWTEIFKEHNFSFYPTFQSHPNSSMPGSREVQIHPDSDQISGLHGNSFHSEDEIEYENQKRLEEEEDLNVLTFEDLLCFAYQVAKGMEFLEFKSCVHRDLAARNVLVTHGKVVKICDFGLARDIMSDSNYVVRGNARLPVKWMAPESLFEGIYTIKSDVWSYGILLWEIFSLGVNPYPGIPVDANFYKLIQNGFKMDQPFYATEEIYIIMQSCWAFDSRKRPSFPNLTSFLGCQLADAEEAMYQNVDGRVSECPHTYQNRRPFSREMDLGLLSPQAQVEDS

Consider `O=C(Nc1n[nH]c2ccc(-c3cn(Cc4ccccc4)nn3)cc12)c1cc(F)ccc1F`, for which the inhibition constant Ki in [1] is 1 µM (active); in assay [2], > 2.51 µM (inactive); in assay [3] it was > 2.51 µM (inactive); in assay [4] it was > 3.98 µM (inactive); in assay [5], > 2.51 µM (inactive); in assay [6], > 2.51 µM (inactive). Further, the inhibitory constant (Ki) in assay [7] was 0.794 µM (active); in [8] it was > 2.51 µM (inactive); in assay [9], > 2 µM (inactive); in [10], 0.2 µM (active); in [11] it was 0.794 µM (active); in [12], 0.00316 µM (active). Further, the Ki was > 3.98 µM (inactive) in assay [13]; > 6.31 µM (inactive) in assay [14]; 0.002 µM (active) in assay [15]; > 3.98 µM (inactive) in assay [16]; > 3.16 µM (inactive) in [17]; > 3.16 µM (inactive) in assay [18]. For the same compound, the inhibition constant (Ki) in assay [19] was 0.00501 µM (active); in assay [20], > 3.16 µM (inactive); in [21], 1.26 µM (active); in assay [22], 2 µM (active); in assay [23], > 3.16 µM (inactive); in assay [24], 1.58 µM (active). In addition, the Ki on Focal adhesion kinase 1 was > 6.31 µM (inactive); in [25], > 3.98 µM (inactive).
As to `CS(=O)(=O)Nc1ccc(Nc2ccc3[nH]nc(N)c3c2)cc1`, the Ki in assay [14] was > 6.31 µM (inactive); in [19], 1.26 µM (active); in assay [22] it was > 5.01 µM (inactive); in assay [23], 2 µM (active); at Focal adhesion kinase 1, > 6.31 µM (inactive).
`CS(=O)(=O)N(Cc1ccc2[nH]c(=O)c3cccn3c2c1)C1CC1`: the Ki in assay [1] is > 3.98 µM (inactive); in assay [2], > 1.26 µM (inactive); in [3] it was > 5.01 µM (inactive); in assay [4], > 3.98 µM (inactive); in assay [5], > 1.58 µM (inactive); in [6] it was > 2.51 µM (inactive). Besides, the Ki in assay [7] is > 3.16 µM (inactive); in [8], > 2 µM (inactive); in [9], > 2.51 µM (inactive); in assay [10], > 3.98 µM (inactive); in [11], 1.58 µM (active); in assay [12], 0.1 µM (active). Besides, the Ki in assay [13] is > 3.98 µM (inactive); in [14] it was > 3.98 µM (inactive); in [15], > 2 µM (inactive); in assay [16] it was > 3.98 µM (inactive); in assay [17] it was > 3.16 µM (inactive); in assay [18], 0.251 µM (active). The Ki in [19] is > 2.51 µM (inactive); in [20], > 7.94 µM (inactive); in assay [21], > 2.51 µM (inactive); in assay [23], > 6.31 µM (inactive); in assay [24], > 2.51 µM (inactive); in assay [25], > 3.98 µM (inactive).
